ChEMBL document CHEMBL5532723, “Advances in Targeted Therapies for Inflammatory Diseases and Cancer: Exploring Cellular Mechanisms and Therapeutic Strategies” (ACS Med Chem Lett, 2024)

Columns and labels:
[1] = target: T1, Protein cereblon/Interleukin-1 receptor-associated kinase 4 (Homo sapiens, UniProt Q9NWZ3+Q96SW2); test: PROTAC activity at CRBN/IRAK4 in human KARPAS-299 cells assessed as induction of IRAK4 degradation incubated for 24 hrs by TR-FRET assay; format: cell-based
Target sequence in this assay (Q9NWZ3 whole entry): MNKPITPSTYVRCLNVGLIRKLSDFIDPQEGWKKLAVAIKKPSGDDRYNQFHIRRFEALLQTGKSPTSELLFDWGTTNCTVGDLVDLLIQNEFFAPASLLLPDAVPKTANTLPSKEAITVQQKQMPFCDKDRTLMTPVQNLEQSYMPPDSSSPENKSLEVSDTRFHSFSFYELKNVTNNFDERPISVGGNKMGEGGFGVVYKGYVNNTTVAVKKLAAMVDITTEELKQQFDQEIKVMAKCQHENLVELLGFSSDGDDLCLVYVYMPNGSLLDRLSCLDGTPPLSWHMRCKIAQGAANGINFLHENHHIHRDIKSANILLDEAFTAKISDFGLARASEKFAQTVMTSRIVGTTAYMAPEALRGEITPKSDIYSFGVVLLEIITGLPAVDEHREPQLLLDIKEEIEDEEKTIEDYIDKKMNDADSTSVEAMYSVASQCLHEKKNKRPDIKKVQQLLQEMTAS
Target sequence in this assay (Q96SW2 whole entry): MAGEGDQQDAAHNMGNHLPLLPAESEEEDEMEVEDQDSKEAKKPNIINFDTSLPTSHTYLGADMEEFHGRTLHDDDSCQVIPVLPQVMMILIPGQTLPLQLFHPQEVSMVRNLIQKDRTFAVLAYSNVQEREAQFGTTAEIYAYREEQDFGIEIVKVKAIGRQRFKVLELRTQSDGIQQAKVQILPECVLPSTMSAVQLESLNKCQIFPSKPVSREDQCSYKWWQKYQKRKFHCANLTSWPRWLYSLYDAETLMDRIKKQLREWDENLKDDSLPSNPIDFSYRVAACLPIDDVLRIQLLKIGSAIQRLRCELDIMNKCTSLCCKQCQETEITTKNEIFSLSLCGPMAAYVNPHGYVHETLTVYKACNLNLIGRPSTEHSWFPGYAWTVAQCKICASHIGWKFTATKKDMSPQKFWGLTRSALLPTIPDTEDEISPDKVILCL

[2] = target: T1, Protein cereblon/Interleukin-1 receptor-associated kinase 4; test: PROTAC activity at CRBN/IRAK4 in human KARPAS-299 cells assessed as induction of IRAK4 degradation incubated for 24 hrs by TR-FRET assay relative to control; format: cell-based
Target sequence in this assay (Q96SW2 whole entry, looked up): as the sequence (Q96SW2 whole entry) above
Target sequence in this assay (Q9NWZ3 whole entry, looked up): as the sequence (Q9NWZ3 whole entry) above

| DC50 [1] | Emax [2] | SMILES |
| --- | --- | --- |
| 3.7 nM | 99% | CC(C)(O)c1cc2nn([C@H]3CC[C@H](N4CCN(CCc5cc(F)c([C@H]6CCC(=O)NC6=O)c(F)c5)CC4)CC3)cc2cc1NC(=O)c1ccc2cc(C#N)cnn12 |
| 8.3 nM | 100% | CC(C)(O)c1cc2nn([C@H]3CC[C@H](N4CCN(C5CN(c6cc(F)c([C@H]7CCC(=O)NC7=O)c(F)c6)C5)CC4)CC3)cc2cc1NC(=O)c1ccc2cc(C#N)cnn12 |
| 3.9 nM | 101% | CC(C)(O)c1cc2nn(C34CCC(N5CCN(CCc6cc(F)c([C@H]7CCC(=O)NC7=O)c(F)c6)CC5)(CC3)CC4)cc2cc1NC(=O)c1ccc2cc(C#N)cnn12 |
| 11 nM | 99% | CC(C)(O)c1cc2nn([C@H]3C[C@H](N4CCN(C(=O)C5CN(c6cc(F)c([C@H]7CCC(=O)NC7=O)c(F)c6)C5)CC4)C3)cc2cc1NC(=O)c1ccc2cc(C#N)cnn12 |
| 5.2 nM | 94% | CC(C)(O)c1cc2nn(C34CC(N5CCN(CCc6cc(F)c([C@H]7CCC(=O)NC7=O)c(F)c6)CC5)(C3)C4)cc2cc1NC(=O)c1ccc2cc(C#N)cnn12 |
| 7.1 nM | 100% | CC(C)(O)c1cc2nn([C@H]3CC[C@H](N4CCN(CCNc5cc(F)c(C6CCC(=O)NC6=O)c(F)c5)CC4)CC3)cc2cc1NC(=O)c1ccc2cc(C#N)cnn12 (some centres not stated) |
